Values of other authors in US20130217743A1, “CANCER PREVENTION AND TREATMENT METHODS BASED ON DIETARY POLYAMINE CONTENT” (CANCER PREVENTION PHARMACEUTICALS, INC., priority 2010, published 2013).

Columns and labels:
tumor putrescine levels = conditions: rat-tumor model, DFMO infusion
[1] = test system: tumors harboring Ki-ras mutations; conditions: AOM-treated rats; reduced from 90%
[2] = test system: prostoglandin E2 (PGE2) levels in flat mucosa; conditions: 300 mg/day, one month
[3] = for mean half-life: in vivo
[4] = human, in vivo

In the case of `NCCCC(N)(C(=O)O)C(F)F` (racemic) [DFMO, 2-(difluoromethyl)-dl-ornithine], the “decrease in tumor putrescine levels” value (tumor putrescine levels) is listed as 90% and the “number of tumors harboring Ki-ras mutations” value [1] is listed as 36%.

For `CC1=C(CC(=O)O)c2cc(F)ccc2/C1=C\c1ccc(S(C)(=O)=O)cc1` [Sulindac sulfone], the COX-inhibitory activity (COX) is given as “lacks COX-inhibitory activity”.

For `CC(C)Cc1ccc(C(C)C(=O)O)cc1` (centres unmarked) [ibuprofen], the “PGE2 levels in flat mucosa” value [2] is given as “significant decrease”.

In the case of `CN1C(C(=O)Nc2ccccn2)=C(O)c2ccccc2S1(=O)=O` [piroxicam, 4-hydroxy-2-methyl-N-2-pyridyl-2H-1,2-benzothiazine-3-carboxamide 1,1-dioxide], the “number of tumors harboring Ki-ras mutations” value [1] is listed as 25%.

For `CSc1ccc(/C=C2/C(C)=C(CC(=O)O)c3cc(F)ccc32)cc1` [sulfide metabolite], the mean half-life [3] is listed as 16.4 h.

In the case of `CC1=C(CC(=O)O)c2cc(F)ccc2/C1=C\c1ccc([S+](C)[O-])cc1` (centres unmarked) [sulindac, (Z)-5-fluoro-2-methyl-1-((4(methylsulfinyl)phenyl)methylene) 1H-indene-3-acetic acid], the “mild gastrointestinal effects, patients” value [4] is listed as ~20%, the “skin rash and pruritus, patients” value [4] is listed as 5% and the drug absorbed ([3]; after oral administration) is listed as “about 90%”. The “time to peak plasma levels” value ([3]; fasting patients) was “about 2 hours” and the mean half-life [3] was 7.8 h.
